Data: ChEMBL document CHEMBL1131488, “Dihydropyrancarboxamides related to zanamivir: a new series of inhibitors of influenza virus sialidases. 1. Discovery, synthesis, biological activity, and structure-activity relationships of 4-guanidino- and 4-amino-4H-pyran-6-carboxamides” (J Med Chem, 1998)

Tests used:
[1] = target: T1, Neuraminidase (Influenza B virus (strain B/Lee/1940), UniProt P03474); assay: Inhibition of influenza B virus sialidase activity
[2] = target: Neuraminidase (Influenza A virus (A/Puerto Rico/8/1934(H1N1)), UniProt P03468); assay: Inhibition of influenza A virus sialidase activity
Sequence of Neuraminidase (Influenza A virus (A/Puerto Rico/8/1934(H1N1)), UniProt P03468) (P03468 whole entry): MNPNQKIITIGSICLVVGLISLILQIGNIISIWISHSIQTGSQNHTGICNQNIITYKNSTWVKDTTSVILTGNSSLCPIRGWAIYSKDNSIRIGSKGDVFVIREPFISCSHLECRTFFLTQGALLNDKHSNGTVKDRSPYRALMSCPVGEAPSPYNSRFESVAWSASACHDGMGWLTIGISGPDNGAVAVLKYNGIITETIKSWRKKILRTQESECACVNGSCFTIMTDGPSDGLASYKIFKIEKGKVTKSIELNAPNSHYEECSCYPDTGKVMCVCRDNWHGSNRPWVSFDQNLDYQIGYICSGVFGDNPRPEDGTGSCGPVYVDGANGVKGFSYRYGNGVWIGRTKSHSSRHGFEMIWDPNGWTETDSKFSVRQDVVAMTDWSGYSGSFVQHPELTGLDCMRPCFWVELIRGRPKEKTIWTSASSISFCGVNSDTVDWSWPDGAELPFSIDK

[3] = target: T1, Neuraminidase; assay: Inhibitory activity against sialidase of influenza B virus by plaque reduction assay
[4] = target: T1, Neuraminidase; assay: Inhibitory activity against sialidase (influenza B virus by plaque reduction assay)
[5] = target: Neuraminidase (Influenza A virus (A/Puerto Rico/8/1934(H1N1)), UniProt P03468)
[6] = tested on: Mus musculus; assay: Compound was tested for in vivo efficacy in mouse model of influenza A virus A/Singapore/1/57 at dose of 10 mg/kg.; assay type: functional
[7] = t1/2, plasma elimination half life, the time taken for the plasma concentrations to fall by one half, once distribution is complete at a dose of 50 mg/kg; assay type: ADME, organism-based; set-up: dose 50 mg/kg
[8] = target: Neuraminidase (Influenza A virus (A/Puerto Rico/8/1934(H1N1)), UniProt P03468); remark: listed apart in the source
[9] = tested on: Mus musculus; assay: Compound was tested for in vivo efficacy in mouse model of influenza A virus A/Singapore/1/57 at dose of 50 mg/kg.; assay type: functional
[10] = Vss, volume of distribution at steady state at a dose of 50 mg/kg; assay type: ADME, organism-based; set-up: dose 50 mg/kg; conditions: in vivo, read-out: Vss
[11] = target: Neuraminidase (Influenza A virus (A/Puerto Rico/8/1934(H1N1)), UniProt P03468); remark: listed apart in the source
[12] = tested on: Mus musculus; assay: Compound was tested for concentration of intranasally administered drug (10 mg/kg) which reduces virus titer by 90%; assay type: functional; conditions: inhaled or nasal
[13] = Clp, plasma clearance at a dose of 50 mg/kg; assay type: ADME, organism-based; set-up: dose 50 mg/kg; conditions: read-out: Clp
[14] = target: Neuraminidase (Influenza A virus (A/Puerto Rico/8/1934(H1N1)), UniProt P03468); remark: listed apart in the source
[15] = tested on: Mus musculus; assay: Compound was tested for in vivo efficacy in mouse model of influenza A virus A/Singapore/1/57 at dose of 1 mg/kg.; assay type: functional
[16] = target: T1, Neuraminidase
[17] = target: Neuraminidase (Influenza A virus (A/Puerto Rico/8/1934(H1N1)), UniProt P03468); remark: listed apart in the source
[18] = tested on: Influenza A virus; assay: Compound was tested for concentration of intranasally administered (in) (10 mg/kg) which reduces virus titer by 90%; assay type: functional; conditions: inhaled or nasal
[19] = Vss, volume of distribution at steady state at a dose of 10 mg/kg; assay type: ADME, organism-based; set-up: dose 10 mg/kg; conditions: in vivo, read-out: Vss
[20] = tested on: Influenza A virus; assay: Compound was tested for in vivo efficacy in mouse model of influenza A virus A/Singapore/1/57 at dose of 100 mg/kg. (i.p.); assay type: functional; conditions: route intraperitoneal
[21] = t1/2, plasma elimination half life, the time taken for the plasma concentrations to fall by one half, once distribution is complete at a dose of 10 mg/kg; assay type: ADME, organism-based; set-up: dose 10 mg/kg
[22] = tested on: Influenza A virus; assay: Compound was tested for in vivo efficacy in mouse model of influenza A virus A/Singapore/1/57 at dose of 10 mg/kg. (in); assay type: functional
[23] = Clp, plasma clearance at a dose of 10 mg/kg; assay type: ADME, organism-based; set-up: dose 10 mg/kg; conditions: read-out: Clp
[24] = tested on: Mus musculus; assay: Compound was tested for in vivo efficacy in mouse model of influenza A virus A/Singapore/1/57 at dose of 0.5 mg/kg (in); assay type: functional
[25] = tested on: Mus musculus; assay: Compound was tested for concentration of intranasally administered drug (0.5 mg/kg) which reduces virus titer by 90%; assay type: functional; conditions: inhaled or nasal
[26] = tested on: Mus musculus; assay: Compound was tested for in vivo efficacy in mouse model of influenza A virus A/Singapore/1/57 at dose of 50 mg/kg (ip); assay type: functional
[27] = target: Neuraminidase (Influenza A virus (A/Puerto Rico/8/1934(H1N1)), UniProt P03468); assay: Inhibition of sialidase (Flu A, 5 nM)
[28] = tested on: Mus musculus; assay: Compound was tested for in vivo efficacy in mouse model of influenza A virus A/Singapore/1/57 at dose of 0.1 mg/kg.; assay type: functional
[29] = tested on: Mus musculus; assay: Compound was tested for concentration of intranasally administered drug (1 mg/kg) which reduces virus titer by 90%; assay type: functional; conditions: inhaled or nasal

T1 sequence (P03474 whole entry): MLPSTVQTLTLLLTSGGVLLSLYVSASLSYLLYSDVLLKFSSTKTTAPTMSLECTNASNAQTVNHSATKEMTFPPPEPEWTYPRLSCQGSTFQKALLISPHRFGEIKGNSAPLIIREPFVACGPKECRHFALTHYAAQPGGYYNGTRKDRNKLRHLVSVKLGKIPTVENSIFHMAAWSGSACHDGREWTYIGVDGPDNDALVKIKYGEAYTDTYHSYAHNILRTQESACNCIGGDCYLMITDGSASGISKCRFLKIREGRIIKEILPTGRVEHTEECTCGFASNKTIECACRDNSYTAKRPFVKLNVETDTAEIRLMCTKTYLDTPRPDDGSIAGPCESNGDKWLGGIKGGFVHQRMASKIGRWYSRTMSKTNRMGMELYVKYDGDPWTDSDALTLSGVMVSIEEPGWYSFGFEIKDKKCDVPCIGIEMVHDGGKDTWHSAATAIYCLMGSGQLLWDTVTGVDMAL

CC(=O)N[C@@H]1[C@@H](N)C=C(C(=O)O)O[C@H]1C(=O)N(CCO)CCc1ccccc1
IC50 [1]: 100 µM | IC50 [2]: 0.012 µM

CC(=O)N[C@@H]1[C@@H](N)C=C(C(=O)O)O[C@H]1C(=O)NCCc1ccccc1
IC50 [3]: > 100 mg/L

CC(=O)N[C@@H]1[C@@H](N)C=C(C(=O)O)O[C@H]1C(=O)N1CCCC1
IC50 [4]: > 100 mg/L | IC50 [2]: 2.9 µM

CCCN(C)C(=O)[C@@H]1OC(C(=O)O)=C[C@H](NC(=N)N)[C@H]1NC(C)=O
IC50 [5]: 0.0056 µM | Reduction in virus titer [6]: 99.9% | half-life [7]: 12.6 min | IC50 [8]: 0.003 µM | Reduction in virus titer [9]: 74.5% | Vd [10]: 0.3 L/kg | IC50 [11]: 0.026 µM | ED90 [12]: < 1 mg/kg | clearance [13]: 1.07 L/h/kg | IC50 [14]: 0.028 µM | Reduction in virus titer [15]: 95%

CC(=O)N[C@@H]1[C@@H](N)C=C(C(=O)O)O[C@H]1C(=O)N1C(C)CCN1C (stereo partly drawn)
IC50 [1]: 13 µM | IC50 [16]: 20 µM | IC50 [17]: 0.052 µM | IC50 [2]: 0.21 µM

CC(=O)N[C@@H]1[C@@H](N)C=C(C(=O)O)O[C@H]1C(=O)N(CCN)CCc1ccccc1
IC50 [1]: 260 µM | IC50 [2]: 47 µM

CC(=O)N[C@@H]1[C@@H](N)C=C(C(=O)O)O[C@H]1C(=O)N(CCc1ccccc1)C1CC1
IC50 [1]: 36 µM | IC50 [2]: 0.046 µM

CCCN(CCc1cccc(O)c1)C(=O)[C@@H]1OC(C(=O)O)=C[C@H](N)[C@H]1NC(C)=O
IC50 [1]: 2.3 µM | IC50 [2]: 0.003 µM

CC(=O)N[C@@H]1[C@@H](N)C=C(C(=O)O)O[C@H]1C(=O)N(CCc1ccccc1)CC(=O)O
IC50 [1]: 75 µM | IC50 [2]: 130 µM

CCCCCCCCCN(CCC)C(=O)[C@@H]1OC(C(=O)O)=C[C@H](N)[C@H]1NC(C)=O
ED90 [18]: > 1 mg/kg | Vd [19]: 1.3 L/kg | Reduction in virus titer [20]: 71% | half-life [21]: 52.2 min | Reduction in virus titer [22]: 96% | clearance [23]: 1.07 L/h/kg

CC(=O)N[C@H]1[C@H]([C@H](O)[C@H](O)CO)OC(C(=O)O)=C[C@@H]1NC(=N)N [ZANAMIVIR]
half-life [7]: 9.6 min | Reduction in virus titer [24]: 99.5% | ED90 [25]: 0.03 mg/kg | Reduction in virus titer [26]: 96.2% | Vd [10]: 0.3 L/kg | clearance [13]: 1.49 L/h/kg

CC(=O)N[C@@H]1[C@@H](N)C=C(C(=O)O)O[C@H]1C(=O)NCCO
IC50 [27]: 420 µM

CCCN(CCC)C(=O)[C@@H]1OC(C(=O)O)=C[C@H](NC(=N)N)[C@H]1NC(C)=O
Vd [19]: 0.5 L/kg | Reduction in virus titer [28]: 99.3% | half-life [21]: 22.2 min | ED90 [29]: < 0.01 mg/kg | Reduction in virus titer [9]: 86% | clearance [23]: 0.36 L/h/kg | Reduction in virus titer [15]: 99.93%

CCCN(CCc1ccc(-c2ccccc2)cc1)C(=O)[C@@H]1OC(C(=O)O)=C[C@H](N)[C@H]1NC(C)=O
IC50 [2]: 0.002 µM

CCCN(CCc1ccc(Cc2ccccc2)cc1)C(=O)[C@@H]1OC(C(=O)O)=C[C@H](N)[C@H]1NC(C)=O
IC50 [1]: 5.2 µM | IC50 [2]: 0.27 µM

CCN(CC)C(=O)[C@@H]1OC(C(=O)O)=C[C@H](N)[C@H]1NC(C)=O
IC50 [1]: 0.36 µM | IC50 [5]: 0.04 µM | IC50 [8]: 0.005 µM | IC50 [11]: 0.085 µM | IC50 [14]: 0.02 µM

CC(=O)N[C@@H]1[C@@H](N)C=C(C(=O)O)O[C@H]1C(=O)N(CCc1ccccc1)CCN(C)C
IC50 [1]: > 300 µM | IC50 [2]: > 300 µM

CCCN(CCc1cccc(-c2ccccc2)c1)C(=O)[C@@H]1OC(C(=O)O)=C[C@H](N)[C@H]1NC(C)=O
IC50 [1]: 4.5 µM | IC50 [2]: 0.002 µM

CCCN(Cc1ccccc1)C(=O)[C@@H]1OC(C(=O)O)=C[C@H](N)[C@H]1NC(C)=O
IC50 [1]: 180 µM | IC50 [2]: 4.2 µM

CCCN(CCCc1ccccc1)C(=O)[C@@H]1OC(C(=O)O)=C[C@H](N)[C@H]1NC(C)=O
IC50 [1]: 46 µM | IC50 [2]: 0.018 µM

CCCN(CCc1cccc(OC)c1)C(=O)[C@@H]1OC(C(=O)O)=C[C@H](N)[C@H]1NC(C)=O
IC50 [1]: 3.2 µM | IC50 [2]: 0.005 µM

CC(=O)N[C@@H]1[C@@H](N)C=C(C(=O)O)O[C@H]1C(=O)N(CCCO)CCc1ccccc1
IC50 [1]: > 360 µM | IC50 [2]: 3 µM
